Measurements reported in PMC10311946 (ACS chemical biology, 2023).
“And” between values parts separate entries of the source, which are not always exact repeats. Identical values can stand only once. “Also recorded” adds a separate entry of the source. Like-named read-outs stand apart in the source and are kept apart here.

Tests used:
FabH [1] = molecular target: T1, FabH (Escherichia coli, UniProt P0A6R0); assay: continuous UV-Vis assay for the production of acetoacetyl-CoA; assay type: biochemical; details: for effect on FabH activity with acetyl-CoA and malonyl-CoA as substrates: UV-Vis assays
T1 sequence (P0A6R0 whole entry): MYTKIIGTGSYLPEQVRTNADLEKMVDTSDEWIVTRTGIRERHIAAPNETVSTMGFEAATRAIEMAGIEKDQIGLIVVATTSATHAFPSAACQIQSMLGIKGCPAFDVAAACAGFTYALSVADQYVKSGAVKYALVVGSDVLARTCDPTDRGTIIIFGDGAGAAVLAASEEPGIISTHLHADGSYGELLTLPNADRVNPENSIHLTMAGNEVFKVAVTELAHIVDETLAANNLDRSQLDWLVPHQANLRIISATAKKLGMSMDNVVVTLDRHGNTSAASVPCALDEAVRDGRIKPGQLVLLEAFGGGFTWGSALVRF

FabH C112Q = assay type: biochemical, Escherichia coli; details: for Initial rate of hydrolysis to CoA or oxa(dethia)CoA / Initial rate, malonyl-CoA → acetyl-CoA/acetoacetyl-CoA: FabH C112Q, 10 μM enzyme; for stability with the FabH C112Q mutant: over 24 hours, 10 μM FabH C112Q
E. coli FabH = details: for Initial rate of hydrolysis to CoA or oxa(dethia)CoA / Initial rate, malonyl-CoA → acetyl-CoA/acetoacetyl-CoA: FabH wt, 10 μM FabH; for time to reaction completion: FabH; for activating potential for FabH decarboxylation of malonyl-CoA to acetoacetyl-CoA: FabH incubated with 125 μM analog then 250 μM malonyl-CoA, HPLC progress curves
[2] = molecular target: fluoroacetyl-CoA hydrolase; details: cited from earlier work
[3] = non-enzymatic stability/hydrolysis in buffer followed by HPLC; assay type: physicochemical; details: for Non-enzymatic hydrolysis rate: pH 6 and 7
FabH [4] = molecular target: T1, FabH; details: cited from earlier work
citrate synthase = details: cited from earlier work
phosphotransacetylase = details: cited from earlier work
[5] = competition with malonyl-CoA binding assumed, pH 8.0, 50 mM Mg2+
[6] = pH 8, ~250 μM substrate or analog
[7] = varying malonyl-CoA, acetyl-CoA at 125 μM, substrate inhibition model
[8] = pH 6, ~250 μM substrate or analog
[9] = pH 7, ~250 μM substrate or analog

SMILES: CC(C)(COP(=O)(O)OP(=O)(O)OC[C@H]1O[C@@H](n2cnc3c(N)ncnc32)[C@H](O)[C@@H]1OP(=O)(O)O)[C@@H](O)C(=O)NCCC(=O)NCCS [CoA]
- Ki (FabH [1]; [5]): 150 ± 70 µM

SMILES: CC(C)(COP(=O)(O)OP(=O)(O)OC[C@H]1O[C@@H](n2cnc3c(N)ncnc32)[C@H](O)[C@@H]1OP(=O)(O)O)[C@@H](O)C(=O)NCCC(=O)NCCOC(=O)CC(=O)O [compound 3, malonyl-oxa(dethia)CoA]
- Ki (FabH [1]; [5]): 800 ± 400 µM
- Decarboxylation by C112Q mutant (FabH C112Q): not detected
- Initial rate of hydrolysis to CoA or oxa(dethia)CoA (FabH C112Q; [6]): ~ 0.001 min^−1
- stability with the FabH C112Q mutant (FabH C112Q): relatively unreactive
- Decarboxylation by FabH (E. coli FabH): not detected
- Initial rate of hydrolysis to CoA or oxa(dethia)CoA (E. coli FabH; [6]): ~ 0.001 min^−1

SMILES: CC(C)(COP(=O)(O)OP(=O)(O)OCC1OC(n2cnc3c(N)ncnc32)C(O)C1OP(=O)(O)O)C(O)C(=O)NCCC(=O)NCCNC(=O)CF (stereo not drawn) [fluoroacetyl-aza(dethia)CoA]
- Kd [2]: 1700 µM

SMILES: CC(C)(COP(=O)(O)OP(=O)(O)OC[C@H]1O[C@@H](n2cnc3c(N)ncnc32)[C@H](O)[C@@H]1OP(=O)(O)O)[C@@H](O)C(=O)NCCC(=O)NCCOC(=O)CF [fluoroacetyl-oxa(dethia)CoA]
- Kd [2]: 90 µM

SMILES: CC(C)(COP(=O)(O)OP(=O)(O)OC[C@H]1O[C@@H](n2cnc3c(N)ncnc32)[C@H](O)[C@@H]1OP(=O)(O)O)[C@@H](O)C(=O)NCCC(=O)NCCNC(=O)CC(=O)O [compound 4, malonyl-aza(dethia)CoA]
- Ki (FabH [1]; [5]): 700 ± 300 µM
- stability with the FabH C112Q mutant (FabH C112Q): completely stable

SMILES: CC(C)(COP(=O)(O)OP(=O)(O)OC[C@H]1O[C@@H](n2cnc3c(N)ncnc32)[C@H](O)[C@@H]1OP(=O)(O)O)[C@@H](O)C(=O)NCCC(=O)NCCO [compound 5, oxa(dethia)CoA]
- Ki (FabH [1]; [5]): 400 ± 200 µM

SMILES: CC(C)(COP(=O)(O)OP(=O)(O)OC[C@H]1O[C@@H](n2cnc3c(N)ncnc32)[C@H](O)[C@@H]1OP(=O)(O)O)[C@@H](O)C(=O)NCCC(=O)NCCSC(=O)CC(=O)O [malonyl-CoA]
- Ki (FabH [1]; read-out: Ki (substrate inhibition), varying malonyl-CoA, acetyl-CoA at 125 μM, substrate inhibition model): 1900 ± 600 µM
- Km (FabH [1]; [7]): 2500 µM and ~2500 µM
- kcat (FabH [1]; [7]): 0.0983 ± 0.0233 s⁻¹
- Non-enzymatic hydrolysis rate [3]: ~ 0.0004 min^−1
- Non-enzymatic hydrolysis rate at pH 8 relative to pH 6 and 7 [3]: ~ 10 times higher
- FabH C112Q decarboxylation relative to activated wild-type in the absence of acetyl-CoA (FabH C112Q): 5 times faster
- Initial rate of hydrolysis to CoA or oxa(dethia)CoA (FabH C112Q; [8]): 0.0005 ± 0.0001 min⁻¹
- Initial rate, malonyl-CoA → acetyl-CoA/acetoacetyl-CoA (FabH C112Q; pH 6, ~250 μM substrate): 0.0060 ± 0.0006 min⁻¹
- Initial rate of hydrolysis to CoA or oxa(dethia)CoA (FabH C112Q; [9]): 0.0007 ± 0.0001 min⁻¹
- Initial rate, malonyl-CoA → acetyl-CoA/acetoacetyl-CoA (FabH C112Q; pH 7, ~250 μM substrate): 0.18 ± 0.01 min⁻¹
- Initial rate of hydrolysis to CoA or oxa(dethia)CoA (FabH C112Q; [6]): 0.0032 ± 0.0005 min⁻¹
- Initial rate, malonyl-CoA → acetyl-CoA/acetoacetyl-CoA (FabH C112Q; pH 8, ~250 μM substrate): 0.20 ± 0.02 min⁻¹
- Initial rate, malonyl-CoA → acetyl-CoA/acetoacetyl-CoA (E. coli FabH; pH 7, ~250 μM substrate): biphasic
- Initial rate, malonyl-CoA → acetyl-CoA/acetoacetyl-CoA (E. coli FabH; pH 8, ~250 μM substrate, 25 μM acetyl-CoA to alleviate lag phase, value is for acetoacetyl-CoA appearance): 0.043 ± 0.001^‡ min^−1
- time to reaction completion (E. coli FabH; malonyl-CoA with priming acetyl-CoA (10% of malonyl-CoA)): about 250 min
- time to reaction completion (E. coli FabH; malonyl-CoA without priming acetyl-CoA (Figure 2J)): 620 min

SMILES: CC(=O)SCCNC(=O)CCNC(=O)[C@H](O)C(C)(C)COP(=O)(O)OP(=O)(O)OC[C@H]1O[C@@H](n2cnc3c(N)ncnc32)[C@H](O)[C@@H]1OP(=O)(O)O [acetyl-CoA]
- transthiolation rate (FabH [4]): 0.05 s⁻¹
- Km (FabH [4]; read-out: apparent KM, pH 7.0, malonyl-S-ACP as acceptor ref 32, 35): 40 µM
- Km (FabH [1]; read-out: apparent Km, varying acetyl-CoA with 125 μM malonyl-CoA): 0.3 ± 0.1 µM
- Non-enzymatic hydrolysis rate [3]: ~ 0.0004 min^−1
- Non-enzymatic hydrolysis rate at pH 8 relative to pH 6 and 7 [3]: ~ 10 times higher
- Km (citrate synthase): 8.5 µM
- Km (phosphotransacetylase): 210 µM
- Initial rate of hydrolysis to CoA or oxa(dethia)CoA (FabH C112Q; [8]): 0.0005 ± 0.0001 min⁻¹
- Initial rate of hydrolysis to CoA or oxa(dethia)CoA (FabH C112Q; [9]): 0.0006 ± 0.0001 min⁻¹
- Initial rate of hydrolysis to CoA or oxa(dethia)CoA (FabH C112Q; [6]): 0.0030 ± 0.0001 min⁻¹
- Initial rate of hydrolysis to CoA or oxa(dethia)CoA (E. coli FabH; [8]): 0.0004 ± 0.0001 min⁻¹
- Initial rate of hydrolysis to CoA or oxa(dethia)CoA (E. coli FabH; [9]): 0.0010 ± 0.0001 min⁻¹
- Initial rate of hydrolysis to CoA or oxa(dethia)CoA (E. coli FabH; [6]): 0.0038 ± 0.0002 min⁻¹

SMILES: CC(=O)NCCNC(=O)CCNC(=O)[C@H](O)C(C)(C)COP(=O)(O)OP(=O)(O)OC[C@H]1O[C@@H](n2cnc3c(N)ncnc32)[C@H](O)[C@@H]1OP(=O)(O)O [compound 2, acetyl-aza(dethia)CoA]
- effect on FabH activity with acetyl-CoA and malonyl-CoA as substrates (FabH [1]): moderate inhibitor
- Ki (FabH [1]; competition with malonyl-CoA binding assumed): 800 µM
- Ki (FabH [1]; [5]): 800 ± 100 µM
- Ki (citrate synthase): 1.6 µM
- Ki (phosphotransacetylase): 130 µM
- activating potential for FabH decarboxylation of malonyl-CoA to acetoacetyl-CoA (E. coli FabH): not strong activators

SMILES: CC(=O)OCCNC(=O)CCNC(=O)[C@H](O)C(C)(C)COP(=O)(O)OP(=O)(O)OC[C@H]1O[C@@H](n2cnc3c(N)ncnc32)[C@H](O)[C@@H]1OP(=O)(O)O [compound 1, acetyl-oxa(dethia)CoA]
- effect on FabH activity with acetyl-CoA and malonyl-CoA as substrates (FabH [1]): slightly activating; also recorded: did not find inhibition; also recorded: a couple percent activation
- Ki (FabH [1]; [5]): weak activation
- Initial rate of hydrolysis to CoA or oxa(dethia)CoA (FabH C112Q; [6]): ~ 0.001 min^−1
- activating potential for FabH decarboxylation of malonyl-CoA to acetoacetyl-CoA (E. coli FabH): not strong activators
- Initial rate of hydrolysis to CoA or oxa(dethia)CoA (E. coli FabH; [6]): ~ 0.003 min^−1

SMILES: CC(C)(COP(=O)(O)OP(=O)(O)OC[C@H]1O[C@@H](n2cnc3c(N)ncnc32)[C@H](O)[C@@H]1OP(=O)(O)O)[C@@H](O)C(=O)NCCC(=O)NCCSC(=O)CF [fluoroacetyl-CoA]
- Km [2]: 8 µM

SMILES: CC(C)(COP(=O)(O)OP(=O)(O)OC[C@H]1O[C@@H](n2cnc3c(N)ncnc32)[C@H](O)[C@@H]1OP(=O)(O)O)[C@@H](O)C(=O)NCCC(=O)NCCN [compound 6, aza(dethia)CoA]
- Ki (FabH [1]; [5]): 900 ± 400 µM
